{
  "source": "paper PMC6429214",
  "about": "“Design, Synthesis and Biological Evaluation of Isoxazole-Based CK1 Inhibitors Modified with Chiral Pyrrolidine Scaffolds” (Molecules, 2019)",
  "assay_in_all_cases": "33PanQinase panel",
  "assay_type_in_all_cases": "biochemical",
  "key": {"[1]": {"target": "T1, PKC-zeta (Homo sapiens, UniProt Q05513)", "T1 construct": "purchased ProQinase", "conditions": "read-out: Residual Activity (%)", "method_in_brief": "(§1)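 1 µM inhibitor; 1% DMSO final; radiometric 33P activity read; result = % residual activity vs DMSO ctrl; 320 wt kinases screened.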"}, "[2]": {"target": "T2, CDK5/p35NCK (Homo sapiens, UniProt Q00535)", "T2 construct": "purchased ProQinase", "conditions": "read-out: Residual Activity (%)", "method_in_brief": "as §1"}, "[3]": {"target": "T3, MST2 (Homo sapiens, UniProt Q13188)", "T3 construct": "purchased ProQinase", "conditions": "MST2, 1 µM; read-out: Residual Activity (%)", "method_in_brief": "as §1"}, "[4]": {"target": "T4, B-RAF (Homo sapiens, UniProt P15056)", "T4 construct": "purchased ProQinase", "conditions": "read-out: Residual Activity (%)", "method_in_brief": "as §1"}, "[5]": {"target": "T5, NEK7 (Homo sapiens, UniProt Q8TDX7)", "T5 construct": "purchased ProQinase", "conditions": "NEK7, 1 µM; read-out: Residual Activity (%)", "method_in_brief": "as §1"}, "[6]": {"target": "T6, MARK2 (Homo sapiens, UniProt Q7KZI7)", "T6 construct": "purchased ProQinase", "conditions": "MARK2, 1 µM; read-out: Residual Activity (%)", "method_in_brief": "as §1"}, "[7]": {"target": "T7, GRK6 (Homo sapiens, UniProt P43250)", "T7 construct": "purchased ProQinase", "conditions": "GRK6, 1 µM; read-out: Residual Activity (%)", "method_in_brief": "as §1"}, "[8]": {"target": "T8, SYK aa1-635 (Homo sapiens, UniProt P43405)", "T8 construct": "purchased ProQinase", "conditions": "SYK aa1-635, 1 µM; read-out: Residual Activity (%)", "method_in_brief": "as §1"}, "[9]": {"target": "T9, ROS (Homo sapiens, UniProt P08922)", "T9 construct": "purchased ProQinase", "conditions": "read-out: Residual Activity (%)", "method_in_brief": "as §1"}, "[10]": {"target": "T10, FGF-R3 (Homo sapiens, UniProt P22607)", "T10 construct": "purchased ProQinase", "T10 sequence (P22607 23-806)": "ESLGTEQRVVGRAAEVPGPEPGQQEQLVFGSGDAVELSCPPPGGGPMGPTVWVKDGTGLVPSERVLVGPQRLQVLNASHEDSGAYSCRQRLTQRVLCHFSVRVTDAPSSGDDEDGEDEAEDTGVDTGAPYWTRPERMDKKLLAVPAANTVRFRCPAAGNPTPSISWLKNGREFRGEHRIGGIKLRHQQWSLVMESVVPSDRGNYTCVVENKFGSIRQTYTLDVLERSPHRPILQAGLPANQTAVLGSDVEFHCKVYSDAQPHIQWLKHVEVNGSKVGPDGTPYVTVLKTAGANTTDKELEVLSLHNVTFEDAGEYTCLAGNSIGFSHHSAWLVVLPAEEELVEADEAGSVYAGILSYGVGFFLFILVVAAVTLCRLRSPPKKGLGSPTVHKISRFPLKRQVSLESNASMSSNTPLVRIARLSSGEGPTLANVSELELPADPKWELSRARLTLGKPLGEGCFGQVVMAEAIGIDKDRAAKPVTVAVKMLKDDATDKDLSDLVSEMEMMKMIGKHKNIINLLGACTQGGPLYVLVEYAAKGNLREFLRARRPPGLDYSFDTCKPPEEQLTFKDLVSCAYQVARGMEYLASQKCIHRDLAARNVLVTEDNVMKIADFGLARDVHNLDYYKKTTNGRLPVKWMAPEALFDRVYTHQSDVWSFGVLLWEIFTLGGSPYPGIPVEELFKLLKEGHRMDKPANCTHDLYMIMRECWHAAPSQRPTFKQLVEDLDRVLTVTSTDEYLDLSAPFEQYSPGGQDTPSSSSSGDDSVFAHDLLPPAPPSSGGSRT", "conditions": "FGF-R3, 1 µM; read-out: Residual Activity (%)", "method_in_brief": "as §1"}, "[11]": {"target": "T11, JAK1 aa583-1154 wt (Homo sapiens, UniProt P23458)", "T11 construct": "purchased ProQinase", "T11 sequence (P23458 583-1154)": "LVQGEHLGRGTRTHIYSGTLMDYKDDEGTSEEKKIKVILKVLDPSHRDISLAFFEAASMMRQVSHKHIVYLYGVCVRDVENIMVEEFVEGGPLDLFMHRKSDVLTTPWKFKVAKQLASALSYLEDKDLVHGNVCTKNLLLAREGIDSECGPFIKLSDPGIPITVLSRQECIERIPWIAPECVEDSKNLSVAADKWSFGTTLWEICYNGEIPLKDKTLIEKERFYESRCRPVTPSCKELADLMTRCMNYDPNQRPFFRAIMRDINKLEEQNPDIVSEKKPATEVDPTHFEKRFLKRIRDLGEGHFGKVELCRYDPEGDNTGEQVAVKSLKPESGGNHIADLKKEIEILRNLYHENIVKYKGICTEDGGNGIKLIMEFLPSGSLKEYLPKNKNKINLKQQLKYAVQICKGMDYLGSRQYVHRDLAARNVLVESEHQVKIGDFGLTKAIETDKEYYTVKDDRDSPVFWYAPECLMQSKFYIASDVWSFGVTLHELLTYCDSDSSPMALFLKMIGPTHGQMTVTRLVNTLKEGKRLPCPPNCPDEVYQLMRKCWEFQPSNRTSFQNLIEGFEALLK", "conditions": "read-out: Residual Activity (%)", "method_in_brief": "as §1"}, "[12]": {"target": "T12, ERK2 (Homo sapiens, UniProt P28482)", "T12 construct": "purchased ProQinase", "conditions": "ERK2, 1 µM; read-out: Residual Activity (%)", "method_in_brief": "as §1"}, "[13]": {"target": "T13, FRK (Homo sapiens, UniProt P42685)", "T13 construct": "purchased ProQinase", "conditions": "read-out: Residual Activity (%)", "method_in_brief": "as §1"}, "[14]": {"target": "T14, CK1-epsilon (Homo sapiens, UniProt P49674)", "T14 construct": "purchased ProQinase", "conditions": "read-out: Residual Activity (%)", "method_in_brief": "as §1"}, "[15]": {"target": "T15, PKMYT1 (Homo sapiens, UniProt Q99640)", "T15 construct": "purchased ProQinase", "conditions": "PKMYT1, 1 µM; read-out: Residual Activity (%)", "method_in_brief": "as §1"}, "[16]": {"target": "T16, CDK4/CycD3 (Homo sapiens, UniProt P11802)", "T16 construct": "purchased ProQinase", "conditions": "CDK4/CycD3, 1 µM; read-out: Residual Activity (%)", "method_in_brief": "as §1"}, "[17]": {"target": "T17, CLK2 (Homo sapiens, UniProt P49760)", "T17 construct": "purchased ProQinase", "conditions": "CLK2, 1 µM; read-out: Residual Activity (%)", "method_in_brief": "as §1"}, "[18]": {"target": "T18, IGF1-R (Homo sapiens, UniProt P08069)", "T18 construct": "purchased ProQinase", "T18 sequence (P08069 31-1367)": "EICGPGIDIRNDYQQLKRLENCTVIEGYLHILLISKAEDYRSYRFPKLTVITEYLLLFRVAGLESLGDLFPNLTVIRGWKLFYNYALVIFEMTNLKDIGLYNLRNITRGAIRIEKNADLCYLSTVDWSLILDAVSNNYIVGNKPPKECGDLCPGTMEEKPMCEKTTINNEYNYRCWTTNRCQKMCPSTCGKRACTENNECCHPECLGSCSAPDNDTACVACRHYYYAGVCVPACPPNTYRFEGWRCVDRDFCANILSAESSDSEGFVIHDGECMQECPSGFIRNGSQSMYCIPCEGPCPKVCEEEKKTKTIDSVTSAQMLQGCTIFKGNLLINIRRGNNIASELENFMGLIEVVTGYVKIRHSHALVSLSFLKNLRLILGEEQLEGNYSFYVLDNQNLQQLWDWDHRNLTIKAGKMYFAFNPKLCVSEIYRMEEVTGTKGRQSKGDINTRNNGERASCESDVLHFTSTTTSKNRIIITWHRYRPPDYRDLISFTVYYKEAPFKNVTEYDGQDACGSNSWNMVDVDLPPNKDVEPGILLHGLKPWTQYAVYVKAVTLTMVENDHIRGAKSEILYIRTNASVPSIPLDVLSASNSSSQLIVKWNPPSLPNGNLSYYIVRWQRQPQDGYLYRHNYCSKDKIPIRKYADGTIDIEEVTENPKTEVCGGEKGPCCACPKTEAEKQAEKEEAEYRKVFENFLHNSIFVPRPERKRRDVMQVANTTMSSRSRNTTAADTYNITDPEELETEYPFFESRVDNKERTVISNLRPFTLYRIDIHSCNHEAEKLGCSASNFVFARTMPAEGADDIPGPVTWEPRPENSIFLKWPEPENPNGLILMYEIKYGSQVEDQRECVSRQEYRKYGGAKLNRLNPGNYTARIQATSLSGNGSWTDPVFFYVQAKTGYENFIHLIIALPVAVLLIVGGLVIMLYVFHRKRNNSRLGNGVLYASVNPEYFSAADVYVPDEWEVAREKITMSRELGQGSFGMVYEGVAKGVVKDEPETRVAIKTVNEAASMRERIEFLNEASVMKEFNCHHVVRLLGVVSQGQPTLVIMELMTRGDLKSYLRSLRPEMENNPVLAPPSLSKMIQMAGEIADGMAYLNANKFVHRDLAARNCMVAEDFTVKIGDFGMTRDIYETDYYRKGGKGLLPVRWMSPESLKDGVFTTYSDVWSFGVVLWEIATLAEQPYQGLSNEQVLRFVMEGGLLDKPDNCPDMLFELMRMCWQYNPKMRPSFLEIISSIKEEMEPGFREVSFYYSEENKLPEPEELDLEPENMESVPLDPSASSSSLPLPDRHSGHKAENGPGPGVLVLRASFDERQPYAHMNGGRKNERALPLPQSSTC", "conditions": "read-out: Residual Activity (%)", "method_in_brief": "as §1"}, "[19]": {"target": "T19, BRSK2 (Homo sapiens, UniProt Q8IWQ3)", "T19 construct": "purchased ProQinase", "conditions": "BRSK2, 1 µM; read-out: Residual Activity (%)", "method_in_brief": "as §1"}, "[20]": {"target": "T20, CDK1/CycB1 (Homo sapiens, UniProt P06493)", "T20 construct": "purchased ProQinase", "conditions": "CDK1/CycB1, 1 µM; read-out: Residual Activity (%)", "method_in_brief": "as §1"}, "[21]": {"target": "T21, PKC-mu (Homo sapiens, UniProt Q15139)", "T21 construct": "purchased ProQinase", "conditions": "read-out: Residual Activity (%)", "method_in_brief": "as §1"}, "[22]": {"target": "T22, DYRK1A (Homo sapiens, UniProt Q13627)", "T22 construct": "purchased ProQinase", "conditions": "read-out: Residual Activity (%)", "method_in_brief": "as §1"}, "[23]": {"target": "T23, PLK1 (Homo sapiens, UniProt P53350)", "T23 construct": "purchased ProQinase", "conditions": "PLK1, 1 µM; read-out: Residual Activity (%)", "method_in_brief": "as §1"}, "[24]": {"target": "T24, JNK2 (Homo sapiens, UniProt P45984)", "T24 construct": "purchased ProQinase", "conditions": "JNK2, 1 µM; read-out: Residual Activity (%)", "method_in_brief": "as §1"}, "[25]": {"target": "T25, MAPKAPK2 (Homo sapiens, UniProt P49137)", "T25 construct": "purchased ProQinase", "conditions": "MAPKAPK2, 1 µM; read-out: Residual Activity (%)", "method_in_brief": "as §1"}, "[26]": {"target": "T26, SGK2 (Homo sapiens, UniProt Q9HBY8)", "T26 construct": "purchased ProQinase", "conditions": "SGK2, 1 µM; read-out: Residual Activity (%)", "method_in_brief": "as §1"}, "[27]": {"target": "T27, RAF1 Y340D/Y341D (untagged)** (Homo sapiens, UniProt P04049, Y340D/Y341D)", "T27 construct": "purchased ProQinase", "T27 sequence (P04049 307-648 Y340D/Y341D limits assumed)": "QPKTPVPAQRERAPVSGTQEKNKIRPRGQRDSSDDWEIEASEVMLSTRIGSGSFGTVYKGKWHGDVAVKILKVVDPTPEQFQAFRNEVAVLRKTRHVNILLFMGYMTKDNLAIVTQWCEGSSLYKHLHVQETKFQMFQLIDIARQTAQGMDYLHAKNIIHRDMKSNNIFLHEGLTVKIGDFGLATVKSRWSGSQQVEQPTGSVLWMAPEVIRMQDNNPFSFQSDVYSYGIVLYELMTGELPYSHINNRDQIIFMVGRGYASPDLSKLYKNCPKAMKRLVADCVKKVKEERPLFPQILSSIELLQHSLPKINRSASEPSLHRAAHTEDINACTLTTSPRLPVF", "conditions": "read-out: Residual Activity (%)", "method_in_brief": "as §1"}, "[28]": {"target": "T28, MUSK (Homo sapiens, UniProt O15146)", "T28 construct": "purchased ProQinase", "T28 sequence (O15146 24-869)": "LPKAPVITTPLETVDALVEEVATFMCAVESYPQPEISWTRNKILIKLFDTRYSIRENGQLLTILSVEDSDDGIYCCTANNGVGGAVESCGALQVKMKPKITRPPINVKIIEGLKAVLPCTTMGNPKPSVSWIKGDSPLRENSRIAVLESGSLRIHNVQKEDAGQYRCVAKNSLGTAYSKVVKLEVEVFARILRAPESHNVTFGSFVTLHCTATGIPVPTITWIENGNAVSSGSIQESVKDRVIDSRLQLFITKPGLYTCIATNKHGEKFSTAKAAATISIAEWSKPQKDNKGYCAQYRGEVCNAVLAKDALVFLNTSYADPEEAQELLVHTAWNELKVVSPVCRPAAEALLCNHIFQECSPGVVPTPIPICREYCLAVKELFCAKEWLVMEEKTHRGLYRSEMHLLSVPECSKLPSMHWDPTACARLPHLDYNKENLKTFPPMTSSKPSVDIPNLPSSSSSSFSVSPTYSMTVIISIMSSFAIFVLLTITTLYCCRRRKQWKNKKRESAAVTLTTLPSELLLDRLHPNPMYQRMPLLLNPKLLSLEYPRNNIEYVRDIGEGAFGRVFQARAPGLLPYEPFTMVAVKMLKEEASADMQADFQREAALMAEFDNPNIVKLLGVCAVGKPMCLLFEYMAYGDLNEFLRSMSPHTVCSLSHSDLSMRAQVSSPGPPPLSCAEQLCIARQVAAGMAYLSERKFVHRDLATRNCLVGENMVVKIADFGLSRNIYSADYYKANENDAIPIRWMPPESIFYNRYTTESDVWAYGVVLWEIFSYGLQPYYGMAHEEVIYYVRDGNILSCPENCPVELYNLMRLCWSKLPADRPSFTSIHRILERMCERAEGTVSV", "conditions": "read-out: Residual Activity (%)", "method_in_brief": "as §1"}, "[29]": {"target": "T29, RET (Homo sapiens, UniProt P07949)", "T29 construct": "purchased ProQinase", "T29 sequence (P07949 29-1114)": "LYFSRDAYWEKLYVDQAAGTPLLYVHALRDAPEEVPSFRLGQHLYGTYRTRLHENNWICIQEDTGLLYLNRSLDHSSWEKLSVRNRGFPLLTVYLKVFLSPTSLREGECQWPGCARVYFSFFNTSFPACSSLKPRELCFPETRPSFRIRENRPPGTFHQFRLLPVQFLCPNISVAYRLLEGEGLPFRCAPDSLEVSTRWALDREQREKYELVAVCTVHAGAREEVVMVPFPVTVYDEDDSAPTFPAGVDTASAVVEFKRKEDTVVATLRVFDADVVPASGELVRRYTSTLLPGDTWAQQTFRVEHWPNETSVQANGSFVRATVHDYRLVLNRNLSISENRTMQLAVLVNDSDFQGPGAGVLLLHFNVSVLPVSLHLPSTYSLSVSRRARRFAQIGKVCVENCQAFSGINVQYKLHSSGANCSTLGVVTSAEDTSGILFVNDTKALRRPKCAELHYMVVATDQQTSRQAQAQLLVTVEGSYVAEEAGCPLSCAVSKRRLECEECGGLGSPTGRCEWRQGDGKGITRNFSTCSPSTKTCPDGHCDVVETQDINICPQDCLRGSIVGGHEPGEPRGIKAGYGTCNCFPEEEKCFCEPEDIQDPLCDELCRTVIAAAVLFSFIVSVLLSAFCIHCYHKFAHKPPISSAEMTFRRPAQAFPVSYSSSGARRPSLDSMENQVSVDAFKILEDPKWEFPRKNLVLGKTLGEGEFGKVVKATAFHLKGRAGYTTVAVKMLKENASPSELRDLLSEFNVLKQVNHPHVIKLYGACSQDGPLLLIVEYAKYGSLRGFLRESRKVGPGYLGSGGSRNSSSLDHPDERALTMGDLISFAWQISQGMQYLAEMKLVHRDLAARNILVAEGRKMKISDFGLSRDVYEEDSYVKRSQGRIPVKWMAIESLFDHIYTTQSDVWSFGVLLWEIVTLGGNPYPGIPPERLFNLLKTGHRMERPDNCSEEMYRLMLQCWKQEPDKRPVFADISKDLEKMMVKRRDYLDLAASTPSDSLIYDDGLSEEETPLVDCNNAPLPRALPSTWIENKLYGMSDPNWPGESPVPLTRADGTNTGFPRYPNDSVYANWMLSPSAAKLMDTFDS", "conditions": "read-out: Residual Activity (%)", "method_in_brief": "as §1"}, "[30]": {"target": "T30, LIMK2 (Homo sapiens, UniProt P53671)", "T30 construct": "purchased ProQinase", "conditions": "LIMK2, 1 µM; read-out: Residual Activity (%)", "method_in_brief": "as §1"}},
  "data": [
    {"molecule": "COc1ccc(-c2cc(C(=O)Nc3cc(-c4c(-c5ccc(F)cc5)noc4C(C)C)ccn3)n(CC3NCC(O)C3O)c2)cc1", "note": "(stereo not drawn) [29d]", "values": [
      {"measurement": "remaining activity at 1 µM", "setting": "[1]", "value": 123, "unit": "%"},
      {"measurement": "remaining activity at 1 µM", "setting": "[2]", "value": 100, "unit": "%"},
      {"measurement": "remaining activity at 1 µM", "setting": "[3]", "value": 85, "unit": "%"},
      {"measurement": "remaining activity at 1 µM", "setting": "[4]", "value": 95, "unit": "%"},
      {"measurement": "remaining activity at 1 µM", "setting": "[5]", "value": 116, "unit": "%"},
      {"measurement": "remaining activity at 1 µM", "setting": "[6]", "value": 97, "unit": "%"},
      {"measurement": "remaining activity at 1 µM", "setting": "[7]", "value": 101, "unit": "%"},
      {"measurement": "remaining activity at 1 µM", "setting": "[8]", "value": 148, "unit": "%"},
      {"measurement": "remaining activity at 1 µM", "setting": "[9]", "value": 88, "unit": "%"},
      {"measurement": "remaining activity at 1 µM", "setting": "[10]", "value": 118, "unit": "%"},
      {"measurement": "remaining activity at 1 µM", "setting": "[11]", "value": 104, "unit": "%"},
      {"measurement": "remaining activity at 1 µM", "setting": "[12]", "value": 104, "unit": "%"},
      {"measurement": "remaining activity at 1 µM", "setting": "[13]", "value": 94, "unit": "%"},
      {"measurement": "remaining activity at 1 µM", "setting": "[14]", "value": 4, "unit": "%"},
      {"measurement": "remaining activity at 1 µM", "setting": "[15]", "value": 107, "unit": "%"},
      {"measurement": "remaining activity at 1 µM", "setting": "[16]", "value": 98, "unit": "%"},
      {"measurement": "remaining activity at 1 µM", "setting": "[17]", "value": 116, "unit": "%"},
      {"measurement": "remaining activity at 1 µM", "setting": "[18]", "value": 104, "unit": "%"},
      {"measurement": "remaining activity at 1 µM", "setting": "[19]", "value": 90, "unit": "%"},
      {"measurement": "remaining activity at 1 µM", "setting": "[20]", "value": 107, "unit": "%"},
      {"measurement": "remaining activity at 1 µM", "setting": "[21]", "value": 94, "unit": "%"},
      {"measurement": "remaining activity at 1 µM", "setting": "[22]", "value": 120, "unit": "%"},
      {"measurement": "remaining activity at 1 µM", "setting": "[23]", "value": 98, "unit": "%"},
      {"measurement": "remaining activity at 1 µM", "setting": "[24]", "value": 40, "unit": "%"},
      {"measurement": "remaining activity at 1 µM", "setting": "[25]", "value": 96, "unit": "%"},
      {"measurement": "remaining activity at 1 µM", "setting": "[26]", "value": 101, "unit": "%"},
      {"measurement": "remaining activity at 1 µM", "setting": "[27]", "value": 103, "unit": "%"},
      {"measurement": "remaining activity at 1 µM", "setting": "[28]", "value": 97, "unit": "%"},
      {"measurement": "remaining activity at 1 µM", "setting": "[29]", "value": 97, "unit": "%"},
      {"measurement": "remaining activity at 1 µM", "setting": "[30]", "value": 98, "unit": "%"}
    ]}
  ]
}
